Experimental data reported in publication PMC4941420, “A Rational Approach for the Identification of Non-Hydroxamate HDAC6-Selective Inhibitors” (Scientific Reports, 2016).

Tests used:
HDAC6 [1] = biological target: T1, HDAC6 (Homo sapiens, UniProt Q9UBN7); test: In vitro enzymatic assay HDAC6 (Fluor de Lys); assay type: biochemical
T1 construct: purchased Sigma Aldrich or Reaction Biology Corporation
T1 sequence (Q9UBN7 1-1215): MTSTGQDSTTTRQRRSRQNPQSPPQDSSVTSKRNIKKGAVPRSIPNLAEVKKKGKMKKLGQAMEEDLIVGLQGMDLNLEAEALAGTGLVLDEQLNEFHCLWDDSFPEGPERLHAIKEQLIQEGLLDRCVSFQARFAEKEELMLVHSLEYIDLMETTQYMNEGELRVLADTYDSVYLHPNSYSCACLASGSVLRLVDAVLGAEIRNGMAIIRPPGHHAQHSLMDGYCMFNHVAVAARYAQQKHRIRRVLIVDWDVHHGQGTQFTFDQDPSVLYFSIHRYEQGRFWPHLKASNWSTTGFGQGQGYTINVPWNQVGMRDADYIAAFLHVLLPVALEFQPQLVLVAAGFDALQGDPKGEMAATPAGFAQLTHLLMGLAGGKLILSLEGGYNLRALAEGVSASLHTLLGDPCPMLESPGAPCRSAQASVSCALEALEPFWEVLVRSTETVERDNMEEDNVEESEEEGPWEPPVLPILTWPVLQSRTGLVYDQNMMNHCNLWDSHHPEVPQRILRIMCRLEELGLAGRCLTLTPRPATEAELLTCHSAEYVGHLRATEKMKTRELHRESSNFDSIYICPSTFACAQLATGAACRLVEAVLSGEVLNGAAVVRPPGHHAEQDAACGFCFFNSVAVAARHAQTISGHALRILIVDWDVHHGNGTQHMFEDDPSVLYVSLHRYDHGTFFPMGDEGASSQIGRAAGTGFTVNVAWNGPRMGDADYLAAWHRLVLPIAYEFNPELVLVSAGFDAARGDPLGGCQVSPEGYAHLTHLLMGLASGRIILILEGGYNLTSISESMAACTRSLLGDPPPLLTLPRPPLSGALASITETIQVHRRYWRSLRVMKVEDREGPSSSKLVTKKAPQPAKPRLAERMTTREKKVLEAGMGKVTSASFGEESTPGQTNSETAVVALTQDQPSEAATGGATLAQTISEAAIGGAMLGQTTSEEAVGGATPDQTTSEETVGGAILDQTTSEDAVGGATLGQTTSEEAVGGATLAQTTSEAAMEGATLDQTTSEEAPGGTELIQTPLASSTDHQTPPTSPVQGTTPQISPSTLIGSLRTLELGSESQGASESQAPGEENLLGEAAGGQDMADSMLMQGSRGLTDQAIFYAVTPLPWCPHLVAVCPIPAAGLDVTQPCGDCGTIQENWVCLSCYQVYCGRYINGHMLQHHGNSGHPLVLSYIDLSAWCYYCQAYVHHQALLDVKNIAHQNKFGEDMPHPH

HDAC6 [2] = test: HDAC ChEMBL dataset / literature, enzymatic IC50 HDAC6; assay type: biochemical; settings: ratio of ChEMBL IC50 values
[3] = Solubility remarks during testing; assay type: physicochemical; settings: tested at 100 µM in HDAC assay buffer
[4] = tested on: class I HDACs (HeLa nuclear extracts); test: HDAC activity of HeLa nuclear extracts (Fluor de Lys); assay type: biochemical, human; settings: 100 μM, average of at least 3 independent experiments in duplicates (Table 1)
HDAC2 = biological target: T2, HDAC2 (Homo sapiens, UniProt Q92769); test: In vitro enzymatic assay HDAC2 (Fluor de Lys); assay type: biochemical; settings: average of at least 2 independent experiments in duplicates ± SEM
T2 construct: purchased Sigma Aldrich or Reaction Biology Corporation
T2 sequence (Q92769 whole entry): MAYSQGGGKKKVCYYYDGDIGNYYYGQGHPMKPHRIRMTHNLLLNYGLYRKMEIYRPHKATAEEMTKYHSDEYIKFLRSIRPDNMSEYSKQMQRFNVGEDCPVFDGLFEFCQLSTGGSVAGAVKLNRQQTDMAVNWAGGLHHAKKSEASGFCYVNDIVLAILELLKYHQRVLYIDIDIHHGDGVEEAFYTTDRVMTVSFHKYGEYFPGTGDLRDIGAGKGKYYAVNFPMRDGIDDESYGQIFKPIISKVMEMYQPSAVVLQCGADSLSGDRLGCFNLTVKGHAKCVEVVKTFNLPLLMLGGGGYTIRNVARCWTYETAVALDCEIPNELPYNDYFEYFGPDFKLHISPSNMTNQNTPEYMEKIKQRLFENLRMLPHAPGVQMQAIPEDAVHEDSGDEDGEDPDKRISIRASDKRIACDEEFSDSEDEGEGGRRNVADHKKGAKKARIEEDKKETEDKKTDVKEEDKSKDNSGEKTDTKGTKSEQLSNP

HDAC8 = biological target: T3, HDAC8 (Homo sapiens, UniProt Q9BY41); test: In vitro enzymatic assay HDAC8 (Fluor de Lys); assay type: biochemical; settings: average of at least 2 independent experiments in duplicates ± SEM
T3 construct: purchased Sigma Aldrich or Reaction Biology Corporation
T3 sequence (Q9BY41 1-377): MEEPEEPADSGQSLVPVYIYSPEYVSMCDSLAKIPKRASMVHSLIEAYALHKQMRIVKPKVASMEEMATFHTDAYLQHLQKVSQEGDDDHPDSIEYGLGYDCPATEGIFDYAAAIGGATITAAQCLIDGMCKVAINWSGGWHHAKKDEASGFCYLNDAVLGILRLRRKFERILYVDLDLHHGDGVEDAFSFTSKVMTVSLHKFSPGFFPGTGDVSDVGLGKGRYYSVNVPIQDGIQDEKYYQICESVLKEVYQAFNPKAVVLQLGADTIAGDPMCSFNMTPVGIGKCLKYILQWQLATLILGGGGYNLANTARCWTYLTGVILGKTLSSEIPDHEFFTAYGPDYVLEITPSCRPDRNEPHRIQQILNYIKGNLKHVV

HDAC4 = biological target: T4, HDAC4 (Homo sapiens, UniProt P56524); test: In vitro enzymatic assay HDAC4 (Fluor de Lys); assay type: biochemical; settings: average of at least 2 independent experiments in duplicates ± SEM
T4 construct: purchased Sigma Aldrich or Reaction Biology Corporation
T4 sequence (P56524 whole entry): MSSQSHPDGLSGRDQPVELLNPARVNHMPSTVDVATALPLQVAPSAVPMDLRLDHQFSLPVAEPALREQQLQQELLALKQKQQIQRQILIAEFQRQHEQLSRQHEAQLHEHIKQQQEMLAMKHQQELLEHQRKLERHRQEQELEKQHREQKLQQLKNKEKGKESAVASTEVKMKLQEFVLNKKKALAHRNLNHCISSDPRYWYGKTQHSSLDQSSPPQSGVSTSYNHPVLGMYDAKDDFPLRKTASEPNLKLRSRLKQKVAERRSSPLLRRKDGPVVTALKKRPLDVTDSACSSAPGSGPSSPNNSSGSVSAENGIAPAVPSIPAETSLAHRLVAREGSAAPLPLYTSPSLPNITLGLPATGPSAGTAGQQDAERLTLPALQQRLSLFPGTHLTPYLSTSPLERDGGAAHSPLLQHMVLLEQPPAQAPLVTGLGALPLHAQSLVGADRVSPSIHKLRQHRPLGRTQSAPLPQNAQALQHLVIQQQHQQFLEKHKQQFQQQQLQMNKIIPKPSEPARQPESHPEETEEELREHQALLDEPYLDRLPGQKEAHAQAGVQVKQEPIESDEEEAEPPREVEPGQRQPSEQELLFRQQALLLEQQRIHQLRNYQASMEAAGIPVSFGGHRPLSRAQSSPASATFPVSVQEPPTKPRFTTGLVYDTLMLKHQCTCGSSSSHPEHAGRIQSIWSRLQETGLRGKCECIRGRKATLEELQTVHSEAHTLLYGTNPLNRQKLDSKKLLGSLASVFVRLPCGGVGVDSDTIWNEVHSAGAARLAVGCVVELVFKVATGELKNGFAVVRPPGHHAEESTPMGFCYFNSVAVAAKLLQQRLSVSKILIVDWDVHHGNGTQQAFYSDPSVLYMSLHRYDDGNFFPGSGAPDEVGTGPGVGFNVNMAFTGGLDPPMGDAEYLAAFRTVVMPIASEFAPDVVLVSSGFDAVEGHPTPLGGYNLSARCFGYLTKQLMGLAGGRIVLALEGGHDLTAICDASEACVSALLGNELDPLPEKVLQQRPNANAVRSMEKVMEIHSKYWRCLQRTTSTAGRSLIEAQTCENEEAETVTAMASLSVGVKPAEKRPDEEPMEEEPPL

Compound	HDAC6 % of inhibition at 100 µM (HDAC6 [1]; 100 µM, mean ± SD (n=3))	other results
Cc1ccccc1COc1ccc(/C=N/NC(N)=S)cc1 [AH-2]	12.1 ± 1.6%	–
Cn1cccc1C(=O)N1Cc2ccc(C(=O)NO)cc2C1 [CHEMBL2431906]	–	Isoform selectivity (ratio) HDAC2/HDAC6 (HDAC6 [2]): 169.2; Isoform selectivity (ratio) HDAC4/HDAC6 (HDAC6 [2]): 84.6
CCOc1cc(/C=N/O)cc(Cl)c1OC [AK-9]	8.0 ± 4.6%	–
CC(C)Oc1cccc(C(=O)NN)c1 [AK-10]	13.9 ± 17.9%	–
Cc1cc2ccccc2n2c(SCC(=O)Nc3ccc(S(N)(=O)=O)cc3)nnc12 [AQ-1]	-16.4 ± 9.3%	solubility remark in HDAC6 screening [3]: Solubility issues
Cc1nnn(C23CC4CC(CC(C(=O)NN)(C4)C2)C3)n1 [AK-19]	18.1 ± 4.0%	–
NNC(=O)c1cc2nc(-c3cccs3)cc(C(F)(F)F)n2n1 [AK-7]	31.1 ± 0.5% Self-fluorescence	–
NNC(=O)c1ccc(COc2ccc(Cl)cc2Cl)o1 [AK-25]	29.1 ± 10.3%	–
Cc1cccc(Cn2nnc3c(=O)n(CC(=O)Nc4ccc(S(N)(=O)=O)cc4)cnc32)c1 [AO-2]	-3.3 ± 5.4%	–
C=CCn1c2ccccc2c2nnc(SC(CC)C(=O)Nc3ccc(S(N)(=O)=O)cc3)nc21 (stereo not drawn) [AG-3]	16.3 ± 0. %	–
CC(C)c1ccc(OCc2cccc(C(=O)NN)c2)cc1 [AK-1]	18.3 ± 0.1%	–
NNC(=O)c1cccc(COc2ccccc2Br)c1 [AK-22]	25.4 ± 9.7%	–
CC(C)(C)C1CCC(C(=O)NN)CC1 (stereo not drawn) [AK-23]	20.2 ± 10.9%	–
CCOc1ccc(OCc2ccc(C(=O)NN)o2)cc1 [AK-16]	36.9 ± 11.3%	–
N/N=C1\CCCc2c1[nH]c1ccc(C(=O)NN)cc21 [AH-1]	26.9 ± 6.1%	–
Cc1c(C)n(Cc2ccccc2)c2ccc(C(=O)NN)cc12 [AK-12]	28.2 ± 16.7%	–
COc1cc(/C=N/NC(N)=S)ccc1OCC(=O)Nc1ccc(Br)c(Cl)c1 [AN-2]	4.9 ± 8.2% Self-fluorescence	–
Cc1nn(Cc2ccc(C(=O)NN)cc2)c(C)c1Cl [AK-2]	–	HeLa % of inhibition at 100 μM [4]: 10.0 ± 2.0%; inhibition at 100 µM (HDAC6 [1]; 100 µM, mean ± SD (n=3), read-out: HDAC6 % of inhibition at 100 µM): 58 ± 1.5%; IC50 (HDAC6 [1]; average of at least 2 independent experiments in duplicates ± SEM): 47.9 ± 4.7 µM; IC50 (HDAC2): > 200 µM; IC50 (HDAC8): 140 ± 11.5 µM; IC50 (HDAC4): > 300 µM
NNC(=O)c1cccc(COc2cc(Cl)ccc2Cl)c1 [AK-6]	15.3 ± 0.5%	–
NNC(=O)C12CC3CC(C1)CC(n1cnc(Cl)n1)(C3)C2 [AK-4]	3.0 ± 0.3%	–
